The target of experiment [1] is T1, 5-HT reuptake (rat brain synaptosomes) (Rattus norvegicus, UniProt P31652).
T1 construct: measuring [^3H]5-HT incorporation into rat brain synaptosomes; from tissue; host or cells: rat brain synaptosomes
The experiment in a line: 5-HT reuptake, [3H]5-HT incorporation into rat brain synaptosomes. The experiment is classed as biochemical. The note with it: 15 min/37° C., read-out: SERT IC50. How it is done: 5-HT reuptake was tested according to Perovic, S. and Muller, W.E.G. (1995) Arzneim-Forsch. Drug Res., 45: 1145-1148 by measuring [^3H]5-HT incorporation into rat brain synaptosomes. Assay conditions are as follows:
Tracer: [^3H]5-HT (0.2 μCi/ml)
Incubation: 15 min/37° C.

The target in experiment [2] is T2, 5-HT1A serotoninergic receptors (Homo sapiens, UniProt P08908).
T2 sequence (P08908 1-422): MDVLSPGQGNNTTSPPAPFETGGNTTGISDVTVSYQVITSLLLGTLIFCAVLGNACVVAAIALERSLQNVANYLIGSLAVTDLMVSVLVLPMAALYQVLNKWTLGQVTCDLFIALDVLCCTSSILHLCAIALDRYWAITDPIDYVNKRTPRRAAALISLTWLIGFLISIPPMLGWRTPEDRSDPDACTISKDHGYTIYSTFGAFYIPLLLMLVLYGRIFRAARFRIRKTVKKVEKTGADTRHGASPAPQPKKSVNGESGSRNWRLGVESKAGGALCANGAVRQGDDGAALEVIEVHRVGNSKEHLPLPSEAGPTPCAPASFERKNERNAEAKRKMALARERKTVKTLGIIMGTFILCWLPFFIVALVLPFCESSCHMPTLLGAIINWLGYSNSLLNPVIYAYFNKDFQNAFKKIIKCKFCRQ
Description: Cellular functional assay, 5-HT1A serotoninergic receptors. The experiment is classed as cell-based. The note with it: agonist mode; percent of control specific agonist response. On the procedure:
(§1) The results are expressed as a percent of control specific agonist response ((measured specific response/control specific agonist response)×100) obtained in the presence of the test compounds.
(§2) The EC50 values (concentration producing a half-maximal specific response) and IC50 values (concentration causing a half-maximal inhibition of the control specific agonist response) were determined by non-linear regression analysis of the concentration-response curves generated with mean replicate values using Hill equation curve fitting (Y=D+[(A−D)/(1+(C/C50)nH)], where Y=specific response, D=minimum specific response, A=maximum specific response, C=compound concentration, and C50=EC50 or IC50, and nH=slope factor). This analysis was performed using a software developed at Cerep (Hill software) and validated by comparison with data generated by the commercial software SigmaPlot® 4.0 for Windows® (© 1997 by SPSS Inc.).
(§3) For the antagonists, the apparent dissociation constants (Kb) were calculated using the modified Cheng Prusoff equation (Kb=IC50/(1+(A/EC50A)), where A=concentration of reference agonist in the assay, and EC50A=EC50 value of the reference agonist).

The target in experiment [3] is D2 dopaminergic receptors (Homo sapiens, UniProt P14416). The experiment in a line: Cellular functional assay, D2 dopaminergic receptors. The experiment is classed as cell-based. The following applies: D2S (h), HEK-293 cells; for D2 ag [%]: agonism, percent of control specific agonist response (3 μM dopamine for control); for D2 antag [%]: antagonism, stimulus dopamine (30 nM). Summed up: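 Responses expressed as percent of control specific agonist response; EC50 or IC50 from Hill-equation nonlinear fits of mean replicate concentration-response curves. For antagonists, Kb derived by modified Cheng-Prusoff using reference agonist concentration and its EC50.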
Chain of D2 dopaminergic receptors (P14416 whole entry): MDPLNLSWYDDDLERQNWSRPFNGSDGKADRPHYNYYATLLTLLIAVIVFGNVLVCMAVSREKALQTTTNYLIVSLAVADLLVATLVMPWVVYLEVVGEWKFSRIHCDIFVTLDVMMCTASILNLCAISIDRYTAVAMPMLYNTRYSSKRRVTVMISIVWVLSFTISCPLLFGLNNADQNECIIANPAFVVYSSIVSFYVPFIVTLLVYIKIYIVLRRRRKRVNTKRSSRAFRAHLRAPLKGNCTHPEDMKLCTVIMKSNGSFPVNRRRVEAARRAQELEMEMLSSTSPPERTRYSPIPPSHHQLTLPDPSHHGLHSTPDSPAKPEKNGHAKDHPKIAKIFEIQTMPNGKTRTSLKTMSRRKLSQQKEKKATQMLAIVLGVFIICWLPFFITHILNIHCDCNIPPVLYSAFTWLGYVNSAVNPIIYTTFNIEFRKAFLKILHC

The target in experiment [4] is T3, 5-HT2C serotoninergic receptors (Homo sapiens, UniProt P28335).
T3 sequence (P28335 33-458): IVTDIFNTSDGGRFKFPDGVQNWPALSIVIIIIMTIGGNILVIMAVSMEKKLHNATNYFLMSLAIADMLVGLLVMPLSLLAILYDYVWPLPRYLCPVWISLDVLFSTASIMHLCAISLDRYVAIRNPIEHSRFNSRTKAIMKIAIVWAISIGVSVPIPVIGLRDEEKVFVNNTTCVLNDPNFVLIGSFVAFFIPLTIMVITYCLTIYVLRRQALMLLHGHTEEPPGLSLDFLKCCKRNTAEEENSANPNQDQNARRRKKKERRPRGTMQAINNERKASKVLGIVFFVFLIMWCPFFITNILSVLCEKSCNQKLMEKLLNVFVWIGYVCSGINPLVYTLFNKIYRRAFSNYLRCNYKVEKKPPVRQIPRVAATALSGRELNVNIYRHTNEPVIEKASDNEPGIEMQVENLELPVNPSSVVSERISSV
The experiment in a line: Cellular functional assay, 5-HT2C serotoninergic receptors. The experiment is classed as cell-based. On the procedure:
as §1, §2, §3

Experiment [5] concerns the target 5-HT2A serotoninergic receptors (Homo sapiens, UniProt P28223). The experiment in a line: Cellular functional assay, 5-HT2A serotoninergic receptors. The experiment is classed as cell-based. Summed up:
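Response expressed as percent of control specific agonist response; EC50 or IC50 from Hill-equation non-linear regression on mean replicate values. For antagonists, apparent Kb derived by modified Cheng-Prusoff using reference agonist concentration and its EC50.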

[6] abbreviates: agonist mode, percent of control specific agonist response.

The source of these data is patent publication US20140135310A1, “SULPHONAMIDE DERIVATIVES OF ALICYCLIC AMINES FOR THE TREATMENT OF CENTRAL NERVOUS SYSTEM DISEASES” (Adamed Sp. z o.o., priority 2011, published 2014).

Where two headings read alike, the source gives them in different places.

Chain of 5-HT2A serotoninergic receptors (P28223 whole entry): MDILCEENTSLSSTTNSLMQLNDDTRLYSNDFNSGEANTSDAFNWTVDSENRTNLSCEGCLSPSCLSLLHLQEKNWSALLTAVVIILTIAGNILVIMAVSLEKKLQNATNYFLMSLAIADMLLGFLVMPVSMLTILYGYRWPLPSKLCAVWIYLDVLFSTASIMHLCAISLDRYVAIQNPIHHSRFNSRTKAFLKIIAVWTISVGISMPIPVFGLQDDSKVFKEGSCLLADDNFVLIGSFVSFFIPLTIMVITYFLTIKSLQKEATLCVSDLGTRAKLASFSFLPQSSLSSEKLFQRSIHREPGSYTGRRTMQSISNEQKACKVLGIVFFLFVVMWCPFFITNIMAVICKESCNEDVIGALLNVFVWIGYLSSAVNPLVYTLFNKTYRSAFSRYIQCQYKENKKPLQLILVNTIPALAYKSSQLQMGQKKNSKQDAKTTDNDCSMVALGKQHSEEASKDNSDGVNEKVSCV
T1 sequence (P31652 whole entry): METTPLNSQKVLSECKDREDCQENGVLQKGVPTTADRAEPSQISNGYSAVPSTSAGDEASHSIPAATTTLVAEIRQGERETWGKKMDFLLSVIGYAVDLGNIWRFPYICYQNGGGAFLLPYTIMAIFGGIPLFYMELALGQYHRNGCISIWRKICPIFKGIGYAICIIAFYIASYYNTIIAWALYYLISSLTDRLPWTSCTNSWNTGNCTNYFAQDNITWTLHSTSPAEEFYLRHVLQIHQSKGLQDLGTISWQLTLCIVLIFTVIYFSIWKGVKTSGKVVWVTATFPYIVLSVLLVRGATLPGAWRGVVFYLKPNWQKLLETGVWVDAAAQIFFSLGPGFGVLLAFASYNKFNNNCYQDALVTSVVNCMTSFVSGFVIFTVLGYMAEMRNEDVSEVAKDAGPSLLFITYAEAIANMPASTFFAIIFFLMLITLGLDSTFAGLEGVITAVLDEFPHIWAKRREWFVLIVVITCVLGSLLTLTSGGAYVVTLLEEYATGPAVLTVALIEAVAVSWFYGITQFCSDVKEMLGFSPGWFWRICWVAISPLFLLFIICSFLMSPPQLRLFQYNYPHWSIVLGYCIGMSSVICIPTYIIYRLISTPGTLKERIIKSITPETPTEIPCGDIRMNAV

`Cc1cccc(S(=O)(=O)NC2CCN(CCCc3c[nH]c4ccc(Cl)cc34)C2)c1` (stereo not drawn) [Compound 86, N-[1-[3-(5-chloro-1H-indol-3-yl)propyl]pyrrolidin-3-yl]-3-methyl-benzenesulphonamide]: in experiment [1], the IC50 was found to be 17 nM.

In the case of `O=S(=O)(NCC1CN(CCOc2cccc3ccccc23)C1)c1ccc2ccccc2c1` [Compound 122, N-[[1-[2-(1-Naphthyloxy)ethyl]azetidin-3-yl]methyl]naphthalene-2-sulphonamide], the “5-HT1A ag [%]” value in experiment [2] came out at 35%. Besides, in experiment [3], the “D2 ag [%]” value was 33% and the “D2 antag [%]” value is 62%. The “5-HT2C ag [%]” value in experiment [4] (setting [6]) turned out to be 78%. The “5-HT2C antag [%]” value in experiment [4] (antagonist mode) is −10%.

As for `O=S(=O)(NCC1CCN(CCOc2cccc3ccccc23)C1)c1ccc2ccccc2c1` (stereo not drawn) [Compound 124, N-[[1-[2-(1-Naphthyloxy)ethyl]pyrrolidin-3-yl]methyl]naphthalene-2-sulphonamide], the “5-HT1A ag [%]” value in experiment [2] is 16%. Further, in experiment [3], the “D2 ag [%]” value was determined as 33% and the “D2 antag [%]” value is given as 44%.

Take `Cc1c(S(=O)(=O)NCC2CN(CCCc3noc4cc(F)ccc34)C2)sc2ccc(F)cc12` [Compound 130, 5-Fluoro-N-[[1-[3-(6-fluoro-1,2-benzoxazol-3-yl)propyl]azetidin-3-yl]methyl]-3-methyl-benzothiophene-2-sulphonamide]: in experiment [5] (setting [6]), the “5-HT2A ag [%]” value came to 0%. Also, in experiment [3], the “D2 ag [%]” value amounted to 6% and the “D2 antag [%]” value was found to be 34%.

Turning to `Cc1c(S(=O)(=O)NCC2CN(CCCc3noc4cc(F)ccc34)C2)sc2ccc(Cl)cc12` [Compound 131, 5-Chloro-N-[[1-[3-(6-fluoro-1,2-benzoxazol-3-yl)propyl]azetidin-3-yl]-methyl]-3-methyl-benzothiophene-2-sulphonamide], the “5-HT2A ag [%]” value in experiment [5] (setting [6]) is given as −2%. In experiment [3], the “D2 ag [%]” value was found to be 5% and the “D2 antag [%]” value was 20%.

As for `O=S(=O)(NCC1CN(CCCc2noc3cc(F)ccc23)C1)c1ccc2ccccc2c1` [Compound 134, N-[[1-[3-(6-Fluoro-1,2-benzoxazol-3-yl)propyl]azetidin-3-yl]methyl]-naphthalene-2-sulphonamide], the “5-HT2A ag [%]” value in experiment [5] was −3%. Also, in experiment [3], the “D2 ag [%]” value turned out to be 6% and the “D2 antag [%]” value amounted to 47%.
